Assay results reported in patent US20210238138A1, “Method for improving nucleation of crystals from solution” (Université Libre de Bruxelles, priority 2018, published 2021).

Assay: Cooling crystallisation of Brivaracetam/IPAc in capillary tubing
Assay type: physicochemical
Conditions: 7 m tubing; for Appearance of crystals: 30 mL/min, 1 restriction, bath 20° C., initial 45° C.
Method: For example, following tests were made on Brivaracetam/IPAc (IsoPropylAcetate) at different concentrations. Induction time (appearance of crystals) is shown in table 1 for different increasing concentrations at a crystallization temperature of 20° C. after flowing through the tube at 30 mL/min in a 7 m long tubing.
(so same overall supersaturation). The variation in crystal size is shown without and with a 5 cm long 500 μm restriction. “Needles and rods” indicate appearance of concurring crystallizations of the two possible crystal types of Brivaracetam. Therefore the method also influences selectivity for one single crystal form. In the case of Brivaracetam, rods are preferred.
The advantage of using restriction(s) has already been indicated in previous tables. A series of tests was also performed using identical conditions and only changing the number of identical restrictions. In table 3, the tests were performed with restrictions of 1 mm in length and having an inner diameter of 500 μm. Crystal length decreases drastically when placing more restrictions in series in the tubing line.
Also different geometries of restriction were tested on Brivaracetam/IPAc mixtures: different lengths and different inner diameters.
The crystallization temperature is controlled by a water bath containing about 5 L of water, temperature is monitored at all times by a thermocouple. This water is cooled by a 1 m long cupper serpentine plunged into the bath with cooling liquid flowing from and to a cryothermostat, the water bath itself is agitated with a magnetic bar stirrer. The internal volume of a 7 m long tubing of […] is about 22 mL. As this volume is 220 times smaller than the volume of the present water it is assumed that the water temperature remains within a 0.5° C. or smaller margin of the set temperature value.

[1] = test 2: 600 mg/mL in IPAc, Tc 0° C., σ 11, Q 43 mL/min, no restriction
[2] = test 3: 600 mg/mL in IPAc, Tc 0° C., σ 11, Q 32 mL/min, no restriction
[3] = test 4: 600 mg/mL in IPAc, Tc 0° C., σ 11, Q 21 mL/min, no restriction
[4] = test 6: 600 mg/mL in IPAc, Tc 0° C., σ 11, Q 43 mL/min, restriction 5 cm long, 500 μm
[5] = test 7: 600 mg/mL in IPAc, Tc 0° C., σ 11, Q 32 mL/min, restriction 5 cm long, 500 μm
[6] = test 8: 600 mg/mL in IPAc, Tc 0° C., σ 11, Q 21 mL/min, restriction 5 cm long, 500 μm
[7] = test 9: 400 mg/mL in IPAc, Tc 10° C., σ 4.7, Q 30 mL/min, 0 restrictions
[8] = test 9 as listed in Table 4: 400 mg/mL in IPAc, Tc 10° C., σ 4.7, Q 30 mL/min, restriction none
[9] = test 10: 400 mg/mL in IPAc, Tc 10° C., σ 4.7, Q 30 mL/min, 1 restriction 1 mm long, 500 μm
[10] = test 11: 400 mg/mL in IPAc, Tc 10° C., σ 4.7, Q 30 mL/min, 1 restriction 1 mm long, 500 μm
[11] = test 12: 400 mg/mL in IPAc, Tc 10° C., σ 4.7, Q 30 mL/min, 2 restrictions 1 mm long, 500 μm
[12] = test 13: 400 mg/mL in IPAc, Tc 10° C., σ 4.7, Q 30 mL/min, 2 restrictions 1 mm long, 500 μm
[13] = test 14: 400 mg/mL in IPAc, Tc 10° C., σ 4.7, Q 30 mL/min, 3 restrictions 1 mm long, 500 μm
[14] = test 15: 400 mg/mL in IPAc, Tc 10° C., σ 4.7, Q 30 mL/min, 3 restrictions 1 mm long, 500 μm
[15] = test 16: 400 mg/mL in IPAc, Tc 10° C., σ 4.7, Q 30 mL/min, 4 restrictions 1 mm long, 500 μm
[16] = test 17: 400 mg/mL in IPAc, Tc 10° C., σ 4.7, Q 30 mL/min, one restriction length 5 cm, diameter 500 μm
[17] = test 18: 400 mg/mL in IPAc, Tc 10° C., σ 4.7, Q 30 mL/min, one restriction length 5 cm, diameter 750 μm
[18] = test 19: 400 mg/mL in IPAc, Tc 10° C., σ 4.7, Q 30 mL/min, one restriction length 20 cm, diameter 500 μm
[19] = test 20: 400 mg/mL in IPAc, Tc 10° C., σ 4.7, Q 30 mL/min, one restriction length 50 cm, diameter 500 μm
[20] = test 21: 400 mg/mL in IPAc, Tc 10° C., σ 4.7, Q 30 mL/min, one restriction length 100 cm, diameter 500 μm

Q: With `CCC[C@@H]1CC(=O)N([C@@H](CC)C(N)=O)C1` [Brivaracetam] as the compound, how does the Appearance of crystals (150 mg/mL in IPAc, supersaturation 0.09) read?
A: Its Appearance of crystals is “None”.

Q: What about the Appearance of crystals (200 mg/mL in IPAc, supersaturation 0.47) of the same compound?
A: The Appearance of crystals was “None”.

Q: And the Appearance of crystals (250 mg/mL in IPAc, supersaturation 0.83)?
A: Its Appearance of crystals is 20 h.

Q: And the Appearance of crystals (300 mg/mL in IPAc, supersaturation 1.21)?
A: Its Appearance of crystals is 2 h.

Q: What about the Appearance of crystals (350 mg/mL in IPAc, supersaturation 1.57) of the same compound?
A: Its Appearance of crystals is 0.5 h.

Q: And the Appearance of crystals (400 mg/mL in IPAc, supersaturation 1.94)?
A: Its Appearance of crystals is “Immediate”.

Q: And the Appearance of crystals (500 mg/mL in IPAc, supersaturation 2.68)?
A: The Appearance of crystals was “Immediate”.

Q: What about the Appearance of crystals (600 mg/mL in IPAc, supersaturation 3.41) of the same compound?
A: The Appearance of crystals was “Immediate, white slurry”.

Q: What about the Appearance of crystals (800 mg/mL in IPAc, supersaturation 4.88) of the same compound?
A: The Appearance of crystals was “Immediate, white slurry”.

Q: What about the Appearance crystals (test 1: 600 mg/mL in IPAc, Tc 0° C., σ 11, Q 54 mL/min, no restriction) of the same compound?
A: The Appearance crystals was “Needles”.

Q: And the Appearance crystals [1]?
A: The Appearance crystals was “Rods”.

Q: What about the Crystal length [1] of the same compound?
A: Its Crystal length is 1020 ± 196 μm.

Q: What about the “J (nucleation rate)” value [1] of the same compound?
A: The value was 2 100 mL^−1 · s^−1.

Q: What about the Appearance crystals [2] of the same compound?
A: The Appearance crystals was “Rods”.

Q: And the Crystal length [2]?
A: Its Crystal length is 365 ± 106 μm.

Q: What about the “J (nucleation rate)” value [2] of the same compound?
A: The value was 43 000 mL^−1 · s^−1.

Q: And the Appearance crystals [3]?
A: The Appearance crystals was “Rods”.

Q: And the Crystal length [3]?
A: Its Crystal length is 258 ± 76 μm.

Q: And the “J (nucleation rate)” value [3]?
A: The value was 121 000 mL^−1 · s^−1.

Q: What about the Appearance crystals (test 5: 600 mg/mL in IPAc, Tc 0° C., σ 11, Q 54 mL/min, restriction 5 cm long, 500 μm) of the same compound?
A: Its Appearance crystals is “Needles”.

Q: And the Appearance crystals [4]?
A: Its Appearance crystals is “Rods”.

Q: What about the Crystal length [4] of the same compound?
A: Its Crystal length is 227 ± 64 μm.

Q: What about the “J (nucleation rate)” value [4] of the same compound?
A: Its value is 181 000 mL^−1 · s^−1.

Q: What about the Appearance crystals [5] of the same compound?
A: The Appearance crystals was “Rods”.

Q: What about the Crystal length [5] of the same compound?
A: Its Crystal length is 121 ± 33 μm.

Q: What about the “J (nucleation rate)” value [5] of the same compound?
A: The value was 1 200 000 mL^−1 · s^−1.

Q: What about the Appearance crystals [6] of the same compound?
A: The Appearance crystals was “Rods”.

Q: And the Crystal length [6]?
A: The Crystal length was 175 ± 100 μm.

Q: What about the “J (nucleation rate)” value [6] of the same compound?
A: Its value is 400 000 mL^−1 · s^−1.

Q: What about the Appearance crystals [7] of the same compound?
A: The Appearance crystals was “Rods”.

Q: What about the Crystal length [7] of the same compound?
A: Its Crystal length is 195 μm.

Q: And the “J (nucleation rate)” value [7]?
A: The value was 66 000 mL.^−1s^−1.

Q: And the Appearance crystals [8]?
A: Its Appearance crystals is “Rods”.

Q: And the Crystal length [8]?
A: The Crystal length was 195 μm.

Q: And the “J (nucleation rate)” value [8]?
A: Its value is 131 000 mL^−1 · s^−1.

Q: And the Appearance crystals [9]?
A: Its Appearance crystals is “Rods”.

Q: And the Crystal length [9]?
A: Its Crystal length is 62 μm.

Q: What about the “J (nucleation rate)” value [9] of the same compound?
A: Its value is 3 085 000 mL.^−1s^−1.

Q: What about the Appearance crystals [10] of the same compound?
A: The Appearance crystals was “Rods”.

Q: What about the Crystal length [10] of the same compound?
A: The Crystal length was 62 μm.

Q: What about the “J (nucleation rate)” value [10] of the same compound?
A: The value was 1 609 000 mL.^−1s^−1.

Q: What about the Appearance crystals [11] of the same compound?
A: Its Appearance crystals is “Rods”.

Q: What about the Crystal length [11] of the same compound?
A: The Crystal length was 46 μm.

Q: And the “J (nucleation rate)” value [11]?
A: The value was 8 500 000 mL.^−1s^−1.

Q: And the Appearance crystals [12]?
A: Its Appearance crystals is “Rods”.

Q: And the Crystal length [12]?
A: Its Crystal length is 43 μm.

Q: What about the “J (nucleation rate)” value [12] of the same compound?
A: Its value is 7 300 000 mL.^−1s^−1.

Q: What about the Appearance crystals [13] of the same compound?
A: Its Appearance crystals is “Rods”.

Q: What about the Crystal length [13] of the same compound?
A: Its Crystal length is 37 μm.

Q: And the “J (nucleation rate)” value [13]?
A: The value was 12 000 000 mL.^−1s^−1.

Q: And the Appearance crystals [14]?
A: The Appearance crystals was “Rods”.

Q: What about the Crystal length [14] of the same compound?
A: The Crystal length was 40 μm.

Q: What about the “J (nucleation rate)” value [14] of the same compound?
A: Its value is 11 500 000 mL.^−1s^−1.

Q: What about the Appearance crystals [15] of the same compound?
A: The Appearance crystals was “Rods”.

Q: What about the Crystal length [15] of the same compound?
A: The Crystal length was 35 μm.

Q: What about the “J (nucleation rate)” value [15] of the same compound?
A: The value was 9 700 000 mL.^−1s^−1.

Q: And the Appearance crystals [16]?
A: The Appearance crystals was “Rods”.

Q: What about the Crystal length [16] of the same compound?
A: Its Crystal length is 143 μm.

Q: What about the “J (nucleation rate)” value [16] of the same compound?
A: The value was 310 000 mL^−1 · s^−1.

Q: What about the Appearance crystals [17] of the same compound?
A: The Appearance crystals was “Rods”.

Q: What about the Crystal length [17] of the same compound?
A: The Crystal length was 120 μm.

Q: What about the “J (nucleation rate)” value [17] of the same compound?
A: Its value is 500 000 mL^−1 · s^−1.

Q: And the Appearance crystals [18]?
A: The Appearance crystals was “Rods”.

Q: What about the Crystal length [18] of the same compound?
A: The Crystal length was 95 μm.

Q: What about the “J (nucleation rate)” value [18] of the same compound?
A: Its value is 642 000 mL^−1 · s^−1.

Q: What about the Appearance crystals [19] of the same compound?
A: The Appearance crystals was “Rods”.

Q: And the Crystal length [19]?
A: The Crystal length was 207 μm.

Q: What about the “J (nucleation rate)” value [19] of the same compound?
A: The value was 132 000 mL^−1 · s^−1.

Q: What about the Appearance crystals [20] of the same compound?
A: Its Appearance crystals is “Rods”.

Q: What about the Crystal length [20] of the same compound?
A: The Crystal length was 211 μm.

Q: What about the “J (nucleation rate)” value [20] of the same compound?
A: The value was 107 000 mL^−1 · s^−1.
